Holding throughout (type): in vivo, C57BL/6J mice
Experiment [1] concerns mice loaded with a high-fat diet. In words: Insulin tolerance test in mice loaded with high-fat diet. The following applies: 3 mg/kg/day in drinking water, 10 weeks. The procedure: (§1) Male C57BL/6J mice (age of 8 weeks) were loaded with a high-fat diet, with the proportion of fat-derived calories over total calories (Fat Kcal %) of 60%. Herewith, insulin resistance, impaired glucose tolerance, and diabetes mellitus are developed. In a group of febuxostat treatment (Febuxostat group), febuxostat was dissolved in tap water at a dose of 3 mg/kg/day and was administered to the mice as daily drinking water at the same time of the initiation of loading with a high-fat diet. Mice in the Vehicle group were given tap water. Moreover, in the normal animal group, mice were reared with a regular diet and tap water in the same period as the Febuxostat group and the Vehicle group. Ten weeks after the start of the high-fat diet and the administration of febuxostat, an insulin tolerance test was carried out to assess random blood glucose levels and insulin resistance. More specifically, 1.5 U/kg of insulin was intraperitoneally administered to the mice and blood glucose levels were measured at 0 minute, 30 minutes, 60 minutes, 90 minutes, 120 minutes after the administration of insulin. Moreover, 12 weeks after the initiation of the high-fat diet and the administration of febuxostat, 0.5 g/kg of glucose was intraperitoneally administered to the mice starved for 4 hours to assess 2-hour blood glucose levels after glucose load. Blood glucose levels were measured at 120 minutes after the administration of glucose. Moreover, on the last day of the administration, blood sampling was carried out to measure blood uric acid levels.

Experiment [2] has the same test system. In words: Blood glucose levels 2 hours after glucose load in mice loaded with high-fat diet. The following applies: 0.5 g/kg glucose i.p. after 4 hours starvation, 3 mg/kg/day in drinking water, 12 weeks. The method, then:
as §1, with “Moreover, 12 weeks after the initiation of the high-fat diet and the administration of febuxostat, 0.5 g/kg of glucose was intraperitoneally administered to the mice starved for 4 hours to assess 2-hour blood glucose levels after glucose load.” left out, “Moreover, on the last day of the administration, blood sampling was carried out to measure blood uric acid levels.” left out

The test system is the same in experiment [3]. In words: Glucose tolerance test in mice loaded with high-fat diet (Example 2). The settings on record: 3 mg/kg/day in drinking water, 12 weeks. The method, then:
Male C57BL/6J mice (8 week-old) were loaded with a high-fat diet with the proportion of fat-derived calories over the total calories (Fat Kcal %) of 60%. Herewith, insulin resistance, impaired glucose tolerance, and diabetes mellitus are developed. At the same time of the initiation of loading high-fat diet, febuxostat dissolved in tap water at 3 mg/kg/day was administered to mice as drinking water in the Febuxostat group and mice in the Vehicle group were reared by administration of tap water as drinking water. Twelve weeks after the loading of a high-fat diet and the administration of febuxostat, a glucose tolerance test was carried out to assess impaired glucose tolerance. More specifically, the mice were made to fast for 4 hours; thereafter 0.5 g/kg of glucose was intraperitoneally administered to the mice. And blood sampling was conducted at 0 minute, 15 minutes, 30 minutes, 60 minutes, 90 minutes, and 120 minutes after glucose load respectively to measure glucose levels.

Experiment [4] shares this test system. Nature of the experiment: Random blood glucose level in mice loaded with high-fat diet. The settings on record: 3 mg/kg/day in drinking water, 10 weeks, mean ± standard deviation, n = 9 to 10. The method, then: as §1, with “Moreover, 12 weeks after the initiation of the high-fat diet and the administration of febuxostat, 0.5 g/kg of glucose was intraperitoneally administered to the mice starved for 4 hours to assess 2-hour blood glucose levels after glucose load.” left out, “Moreover, on the last day of the administration, blood sampling was carried out to measure blood uric acid levels.” left out

The test system is the same in experiment [5]. Nature of the experiment: Blood uric acid levels in mice loaded with high-fat diet. The settings on record: last day of administration, 3 mg/kg/day in drinking water. The procedure:
as §1, with “Moreover, 12 weeks after the initiation of the high-fat diet and the administration of febuxostat, 0.5 g/kg of glucose was intraperitoneally administered to the mice starved for 4 hours to assess 2-hour blood glucose levels after glucose load.” left out, “Moreover, on the last day of the administration, blood sampling was carried out to measure blood uric acid levels.” left out

For `Cc1nc(-c2ccc(OCC(C)C)c(C#N)c2)sc1C(=O)O` [Febuxostat, 2-(3-cyano-4-isobutyloxyphenyl)-4-methyl-5-thiazole carboxylic acid], the “Ratio of blood glucose levels relative to the value before insulin administration” value in experiment [1] (30 min after 1.5 U/kg insulin i.p.) is given as 66 ± 4%; in experiment [1] (60 min after 1.5 U/kg insulin i.p.), 62 ± 3%; in experiment [1] (90 min after 1.5 U/kg insulin i.p.) it was 71 ± 4%; in experiment [1] (120 min after 1.5 U/kg insulin i.p.), 91 ± 5%. Further, in experiment [1] (after 1.5 U/kg insulin i.p.), the “Blood glucose level AUC (0-2 hour)” value was determined as 371 ± 17 mg·h/dL. For the same compound, the “Blood glucose levels 2 hours after glucose load” value in experiment [2] was determined as 396 ± 18 mg/dL. Moreover, the Blood glucose levels in experiment [3] (0 min after 0.5 g/kg glucose i.p., n = 5 to 6) came to 214 ± 17 mg/dL; in experiment [3] (15 min after 0.5 g/kg glucose i.p.) it was 368 ± 29 mg/dL; in experiment [3] (30 min after 0.5 g/kg glucose i.p.), 378 ± 26 mg/dL; in experiment [3] (60 min after 0.5 g/kg glucose i.p.), 349 ± 35 mg/dL; in experiment [3] (90 min after 0.5 g/kg glucose i.p.) it was 323 ± 43 mg/dL; in experiment [3] (120 min after 0.5 g/kg glucose i.p.) it was 279 ± 31 mg/dL. For the same compound, in experiment [4], the “Random blood glucose level” value was found to be 244 ± 7 mg/dL. For the same compound, in experiment [5], the “Blood uric acid levels” value turned out to be 0.7 ± 0.1 mg/dL.
